Source: patent US20150273020A1, “Hormone Normalization Therapy and Uses Therefor” (priority 2007, published 2015)

What was measured:
[1] = test system: patient with diminished ovarian reserve; assay: Case of a low-responder patient: FSH needed to ovulate, with and without estradiol patch and low dose hCG; assay type: in vivo, human
Experimental: To ovulate a single follicle, they required a follicle stimulating hormone level of 18 IU/L, with a typical threshold value of FSH required for a regularly cycling young and healthy woman in the range of 5 IU/L or less. This patient was also characterized by their physician as a low responder to FSH, which refers to a patient who requires high follicle stimulating hormone doses to ovulate even a single follicle. […] In the first two menstrual cycles, the patient was treated using the method as described supra, with a high dose follicle stimulating hormone (FSH) at a total dosage of FSH at about 5,000 IU across the cycle with very high threshold dosage and threshold peak follicle stimulating hormone levels like that of an AMA person with high FSH, in the first cycle and second cycle to induce follicle growth to the ovulatory stage. In the third consecutive treatment cycle, the above-described regimen was supplemented with an estradiol patch delivering 17-beta estradiol for several days until the commencement of stimulation with FSH medication. The patch was then continued daily during the period of stimulated until the evening before expected hCG injection, when it was removed. This was designed to coincide to approximate the timing of the estradiol surge. […]

[2] = test system: follicular growth to ovulation; conditions: Schoemaker study; cited from earlier work
[3] = woman given daily FSH injections at a given dosage; cited from earlier work

For follicle stimulating hormone, the “follicle stimulating hormone level required to ovulate a single follicle” value ([1]; COHS cycle, severe GnRHa suppression) is given as 18 IU/L, the “total dosage of FSH across the cycle to induce follicle growth to the ovulatory stage” value ([1]; first and second cycles, without estradiol and hCG supplementation) is given as “about 5,000 IU” and the “threshold level of serum FSH for follicular growth to ovulation” value [2] is given as 7.8 IU. For the same substance, the “time for steady-state levels of FSH to be established” value [3] was 4 days.
